The results in this text go back to PubChem BioAssay AID248 (DTP/NCI, 2004).

Several values for one entry are separate records, joined by “and”; a condition that tells them apart may be missing. Identical values can stand only once. Toxic doses and inconclusive results are not listed.

The experiment relates to L1210 leukemia ip in BDF1 mice, survival T/C. Put plainly: NCI In Vivo Anticancer Drug Screen. Data for tumor model L1210 Leukemia (intraperitoneal) in B6D2F1 (BDF1) mice. The following applies: higher = longer survival. In outline: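 Survival endpoint. Drug-treated group vs vehicle group, expressed as T divided by C. Tumor passaged by transplantation.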
Where [1] appears, read: endpoint: mean survival time, dose: 100.0 mg/kg/injection, schedule: Q04DX003 (ip), vehicle: Klucel (hydroxypropylcellulose) (HPC).
The mark [2] stands for this setting: endpoint: mean survival time, dose: 200.0 mg/kg/injection, schedule: Q04DX003 (ip), vehicle: Klucel (hydroxypropylcellulose) (HPC).

Turning to `COc1cc2cc3c4cc(OC)c(OC)cc4cc[n+]3c(C)c2cc1OC`, the T/C (endpoint: mean survival time, dose: 12.0 mg/kg/injection, schedule: Q01DX009 (ip), vehicle: saline) is 100 % of control; the T/C (endpoint: mean survival time, dose: 12.5 mg/kg/injection, schedule: Q01DX009 (ip), vehicle: water) is 117 % of control; the T/C (endpoint: mean survival time, dose: 16.0 mg/kg/injection, schedule: Q03HX008 (ip), vehicle: saline) is 122 % of control; the T/C (endpoint: mean survival time, dose: 16.0 mg/kg/injection, schedule: Q03HX016 (ip), vehicle: saline) is 122 % of control; the T/C (endpoint: mean survival time, dose: 25.0 mg/kg/injection, schedule: Q01DX009 (ip), vehicle: saline) is 117 % of control; the T/C (endpoint: mean survival time, dose: 32.0 mg/kg/injection, schedule: Q03HX008 (ip), vehicle: saline) was 118 % of control. Moreover, the T/C (endpoint: mean survival time, dose: 32.0 mg/kg/injection, schedule: Q03HX024 (ip), vehicle: saline) is 124 % of control; the T/C (endpoint: mean survival time, dose: 50.0 mg/kg/injection, schedule: Q01DX009 (ip), vehicle: saline sonified) was 115 % of control; the T/C (endpoint: mean survival time, dose: 50.0 mg/kg/injection, schedule: Q04DX002 (ip), vehicle: saline) is 120 % of control; the T/C (endpoint: mean survival time, dose: 50.0 mg/kg/injection, schedule: Q04DX003 (ip), vehicle: saline) was 116 % of control; the T/C (endpoint: mean survival time, dose: 64.0 mg/kg/injection, schedule: Q03HX008 (ip), vehicle: saline) was 122 % of control; the T/C (endpoint: mean survival time, dose: 100.0 mg/kg/injection, schedule: Q01DX009 (ip), vehicle: saline sonified) was 115 % of control. The T/C is 110 % of control and 119 % of control (endpoint: mean survival time, dose: 100.0 mg/kg/injection, schedule: Q01DX009 (ip), vehicle: saline); 123 % of control (endpoint: mean survival time, dose: 100.0 mg/kg/injection, schedule: Q04DX002 (ip), vehicle: saline); 108 % of control (endpoint: mean survival time, dose: 100.0 mg/kg/injection, schedule: Q04DX003 (ip), vehicle: saline); 117 % of control (endpoint: mean survival time, dose: 128.0 mg/kg/injection, schedule: Q01DX001 (ip), vehicle: saline); 120 % of control (endpoint: mean survival time, dose: 128.0 mg/kg/injection, schedule: Q01DX009 (ip), vehicle: saline); 124 % of control (endpoint: mean survival time, dose: 128.0 mg/kg/injection, schedule: Q03HX008 (ip), vehicle: saline). For the same compound, the T/C reads like this: (endpoint: mean survival time, dose: 128.0 mg/kg/injection, schedule: Q04DX003 (ip), vehicle: saline) 114 % of control; (endpoint: mean survival time, dose: 128.0 mg/kg/injection, schedule: Q08DX002 (ip), vehicle: saline) 122 % of control; (endpoint: mean survival time, dose: 200.0 mg/kg/injection, schedule: Q01DX009 (ip), vehicle: saline sonified) 112 % of control; (endpoint: mean survival time, dose: 200.0 mg/kg/injection, schedule: Q04DX002 (ip), vehicle: saline) 120 % of control; (endpoint: mean survival time, dose: 256.0 mg/kg/injection, schedule: Q01DX001 (ip), vehicle: saline) 117 % of control; (endpoint: mean survival time, dose: 256.0 mg/kg/injection, schedule: Q08DX002 (ip), vehicle: saline) 118 % of control. Also, the T/C was 151 % of control (endpoint: mean survival time, dose: 400.0 mg/kg/injection, schedule: Q01DX009 (ip), vehicle: water); 116 % of control and 118 % of control (endpoint: mean survival time, dose: 400.0 mg/kg/injection, schedule: Q04DX002 (ip), vehicle: saline); 120 % of control (endpoint: mean survival time, dose: 400.0 mg/kg/injection, schedule: Q04DX003 (ip), vehicle: saline); 119 % of control (endpoint: mean survival time, dose: 512.0 mg/kg/injection, schedule: Q01DX001 (ip), vehicle: saline); 120 % of control (endpoint: mean survival time, dose: 512.0 mg/kg/injection, schedule: Q08DX002 (ip), vehicle: saline); 106 % of control (endpoint: mean survival time, dose: 1024.0 mg/kg/injection, schedule: Q04DX003 (ip), vehicle: saline). Also, the T/C is, setting by setting: (endpoint: median survival time, dose: 16.0 mg/kg/injection, schedule: Q03HX008 (ip), vehicle: saline) 122 % of control; (endpoint: median survival time, dose: 16.0 mg/kg/injection, schedule: Q03HX024 (ip), vehicle: saline) 122 % of control; (endpoint: median survival time, dose: 32.0 mg/kg/injection, schedule: Q01DX009 (ip), vehicle: saline) 122 % of control; (endpoint: median survival time, dose: 50.0 mg/kg/injection, schedule: Q01DX009 (ip), vehicle: saline) 105 % of control and 109 % of control; (endpoint: median survival time, dose: 62.5 mg/kg/injection, schedule: Q01DX009 (ip), vehicle: saline) 120 % of control; (endpoint: median survival time, dose: 64.0 mg/kg/injection, schedule: Q01DX001 (ip), vehicle: saline) 122 % of control. Moreover, the T/C was 122 % of control (endpoint: median survival time, dose: 64.0 mg/kg/injection, schedule: Q01DX009 (ip), vehicle: saline); 100 % of control (endpoint: median survival time, dose: 64.0 mg/kg/injection, schedule: Q01DX009 (oral), vehicle: saline); 100 % of control (endpoint: median survival time, dose: 64.0 mg/kg/injection, schedule: Q01DX009 (sc), vehicle: saline); 122 % of control (endpoint: median survival time, dose: 64.0 mg/kg/injection, schedule: Q03HX008 (ip), vehicle: saline); 122 % of control (endpoint: median survival time, dose: 64.0 mg/kg/injection, schedule: Q04DX003 (ip), vehicle: saline); 111 % of control (endpoint: median survival time, dose: 64.0 mg/kg/injection, schedule: Q08DX002 (ip), vehicle: saline). Moreover, the T/C was 120 % of control (endpoint: median survival time, dose: 125.0 mg/kg/injection, schedule: Q01DX009 (ip), vehicle: saline); 122 % of control (endpoint: median survival time, dose: 128.0 mg/kg/injection, schedule: Q01DX001 (ip), vehicle: saline); 122 % of control (endpoint: median survival time, dose: 128.0 mg/kg/injection, schedule: Q01DX009 (ip), vehicle: saline); 105 % of control (endpoint: median survival time, dose: 128.0 mg/kg/injection, schedule: Q01DX009 (oral), vehicle: saline); 100 % of control (endpoint: median survival time, dose: 128.0 mg/kg/injection, schedule: Q01DX009 (sc), vehicle: saline); 122 % of control (endpoint: median survival time, dose: 128.0 mg/kg/injection, schedule: Q04DX003 (ip), vehicle: saline). The T/C runs as follows: (endpoint: median survival time, dose: 128.0 mg/kg/injection, schedule: Q08DX002 (ip), vehicle: saline) 122 % of control; (endpoint: median survival time, dose: 256.0 mg/kg/injection, schedule: Q01DX009 (oral), vehicle: saline) 111 % of control; (endpoint: median survival time, dose: 256.0 mg/kg/injection, schedule: Q01DX009 (sc), vehicle: saline) 94 % of control; (endpoint: median survival time, dose: 256.0 mg/kg/injection, schedule: Q08DX002 (ip), vehicle: saline) 122 % of control; (endpoint: median survival time, dose: 512.0 mg/kg/injection, schedule: Q01DX001 (ip), vehicle: saline) 122 % of control; (endpoint: median survival time, dose: 512.0 mg/kg/injection, schedule: Q01DX009 (oral), vehicle: saline) 100 % of control. Also, the T/C runs as follows: (endpoint: median survival time, dose: 512.0 mg/kg/injection, schedule: Q01DX009 (sc), vehicle: saline) 100 % of control; (endpoint: median survival time, dose: 512.0 mg/kg/injection, schedule: Q04DX003 (ip), vehicle: saline) 122 % of control; (endpoint: median survival time, dose: 1024.0 mg/kg/injection, schedule: Q01DX009 (oral), vehicle: saline) 88 % of control; (endpoint: median survival time, dose: 1024.0 mg/kg/injection, schedule: Q01DX009 (sc), vehicle: saline) 100 % of control; (endpoint: median survival time, dose: 1024.0 mg/kg/injection, schedule: Q08DX002 (ip), vehicle: saline) 122 % of control; (endpoint: median survival time, dose: 1600.0 mg/kg/injection, schedule: Q01DX009 (ip), vehicle: saline) 90 % of control.
Regarding `c1ccc(NC2C(=C(c3ccccc3)c3ccccc3)N3CCC2CC3)cc1` (centres undefined), the T/C was 95 % of control under setting [1]; 94 % of control under setting [2]; 95 % of control (endpoint: mean survival time, dose: 400.0 mg/kg/injection, schedule: Q04DX003 (ip), vehicle: Klucel (hydroxypropylcellulose) (HPC)).
For `CCN(CC)N=Nc1ccccc1-c1nc(N)nc(N)n1`, the T/C is 95 % of control under setting [1] and 108 % of control under setting [2].
`CC(CCC(=O)O)([N+](=O)[O-])[N+](=O)[O-]`: the T/C is 98 % of control (endpoint: mean survival time, dose: 100.0 mg/kg/injection, schedule: Q01DX001 (ip), vehicle: Klucel (hydroxypropylcellulose) (HPC)); 102 % of control (endpoint: mean survival time, dose: 200.0 mg/kg/injection, schedule: Q01DX001 (ip), vehicle: Klucel (hydroxypropylcellulose) (HPC)); 98 % of control (endpoint: mean survival time, dose: 400.0 mg/kg/injection, schedule: Q01DX001 (ip), vehicle: Klucel (hydroxypropylcellulose) (HPC)).
As for `COC1C(O)C(C)OC(OC2CCC3(C)C(CCC4C3C(O)CC3(C)C(C5=CC(=O)OC5)CCC43O)C2)C1O` (centres undefined), the T/C was 103 % of control (endpoint: mean survival time, dose: 5.0 mg/kg/injection, schedule: Q01DX001 (ip), vehicle: saline); 103 % of control (endpoint: mean survival time, dose: 10.0 mg/kg/injection, schedule: Q01DX001 (ip), vehicle: saline); 101 % of control (endpoint: mean survival time, dose: 20.0 mg/kg/injection, schedule: Q01DX001 (ip), vehicle: saline).
Take `CCCCCCCCCCCCCOc1ccc(S(=O)(=O)/N=C(\N)NC(N)=NCCCCCCCCCCCC)cc1`: the T/C (endpoint: mean survival time, dose: 100.0 mg/kg/injection, schedule: Q04DX002 (ip), vehicle: Klucel (hydroxypropylcellulose) (HPC)) is 93 % of control; the T/C (endpoint: mean survival time, dose: 200.0 mg/kg/injection, schedule: Q04DX002 (ip), vehicle: Klucel (hydroxypropylcellulose) (HPC)) was 93 % of control; the T/C (endpoint: mean survival time, dose: 400.0 mg/kg/injection, schedule: Q04DX002 (ip), vehicle: Klucel (hydroxypropylcellulose) (HPC)) was 86 % of control.
